Source: patent US8735322B2, “Herbicides” (Syngenta Limited, priority 2008, dated 2014)

How the values were obtained:
Assay type in all cases: in vivo
[1] = tested on: Amaranthus retroflexus (AMARE); assay: Example B post-emergence herbicidal activity, glasshouse pot test; details: 312 h, rate 1000 g/ha, evaluated after 13 days, read-out: herbicidal damage AMARE (100=total damage to plant; 0=no damage to plant)
Procedure: (§1) Seeds of a variety of test species were sown in standard soil in pots. After cultivation for one day (pre-emergence) or after 8 days cultivation (post-emergence) under controlled conditions in a glasshouse (at 24/16° C., day/night; 14 hours light; 65% humidity), the plants were sprayed with an aqueous spray solution derived from the formulation of the technical active ingredient in acetone/water (50:50) solution containing 0.5% Tween 20 (polyoxyethelyene sorbitan monolaurate, CAS RN 9005-64-5). The test plants were then grown in a glasshouse under controlled conditions in a glasshouse (at 24/16° C., day/night; 14 hours light; 65% humidity) and watered twice daily. After 13 days for pre and post-emergence, the test was evaluated (100=total damage to plant; 0=no damage to plant). Alopecurus myosuroides (ALOMY), Avena fatua (AVEFA), Setaria faberi (SETFA), Echinochloa crus-galli (ECHCG), Solanum nigrum (SOLNI) and Amaranthus retroflexus (AMARE) Post-Emergence Activity

Solanum nigrum (SOLNI) [2] = assay: as above; details: 312 h, rate 1000 g/ha, evaluated after 13 days, read-out: herbicidal damage SOLNI (100=total damage to plant; 0=no damage to plant)
Procedure: as §1

Setaria faberi (SETFA) [3] = assay: as above; details: 312 h, rate 1000 g/ha, evaluated after 13 days, read-out: herbicidal damage SETFA (100=total damage to plant; 0=no damage to plant)
Procedure: as §1

[4] = tested on: Echinochloa crus-galli (ECHCG); assay: as above; details: 312 h, rate 1000 g/ha, evaluated after 13 days, read-out: herbicidal damage ECHCG (100=total damage to plant; 0=no damage to plant)
Procedure: as §1

Avena fatua (AVEFA) [5] = assay: as above; details: 312 h, rate 1000 g/ha, evaluated after 13 days, read-out: herbicidal damage AVEFA (100=total damage to plant; 0=no damage to plant)
Procedure: as §1

[6] = tested on: Alopecurus myosuroides (ALOMY); assay: as above; details: 312 h, rate 1000 g/ha, evaluated after 13 days, read-out: herbicidal damage ALOMY (100=total damage to plant; 0=no damage to plant)
Procedure: as §1

[7] = tested on: Amaranthus retroflexus (AMARE); assay: Example B pre-emergence herbicidal activity, glasshouse pot test; details: 312 h, rate 1000 g/ha, evaluated after 13 days, read-out: herbicidal damage AMARE (100=total damage to plant; 0=no damage to plant)
Procedure: as §1, with “Pre-Emergence” for “Post-Emergence”

Solanum nigrum (SOLNI) [8] = assay: as above; details: 312 h, rate 1000 g/ha, evaluated after 13 days, read-out: herbicidal damage SOLNI (100=total damage to plant; 0=no damage to plant)
Procedure: as §1, with “Pre-Emergence” for “Post-Emergence”

Setaria faberi (SETFA) [9] = assay: as above; details: 312 h, rate 1000 g/ha, evaluated after 13 days, read-out: herbicidal damage SETFA (100=total damage to plant; 0=no damage to plant)
Procedure: as §1, with “Pre-Emergence” for “Post-Emergence”

[10] = tested on: Echinochloa crus-galli (ECHCG); assay: as above; details: 312 h, rate 1000 g/ha, evaluated after 13 days, read-out: herbicidal damage ECHCG (100=total damage to plant; 0=no damage to plant)
Procedure: as §1, with “Pre-Emergence” for “Post-Emergence”

Avena fatua (AVEFA) [11] = assay: as above; details: 312 h, rate 1000 g/ha, evaluated after 13 days, read-out: herbicidal damage AVEFA (100=total damage to plant; 0=no damage to plant)
Procedure: as §1, with “Pre-Emergence” for “Post-Emergence”

[12] = tested on: Alopecurus myosuroides (ALOMY); assay: as above; details: 312 h, rate 1000 g/ha, evaluated after 13 days, read-out: herbicidal damage ALOMY (100=total damage to plant; 0=no damage to plant)
Procedure: as §1, with “Pre-Emergence” for “Post-Emergence”

Row | Structure (SMILES) | pest or weed control at 1000 g/ha [1] [%] | pest or weed control at 1000 g/ha (Solanum nigrum (SOLNI) [2]) [%] | pest or weed control at 1000 g/ha (Setaria faberi (SETFA) [3]) [%] | pest or weed control at 1000 g/ha [4] [%] | pest or weed control at 1000 g/ha (Avena fatua (AVEFA) [5]) [%] | pest or weed control at 1000 g/ha [6] [%] | pest or weed control at 1000 g/ha [7] [%] | pest or weed control at 1000 g/ha (Solanum nigrum (SOLNI) [8]) [%] | pest or weed control at 1000 g/ha (Setaria faberi (SETFA) [9]) [%] | pest or weed control at 1000 g/ha [10] [%] | pest or weed control at 1000 g/ha (Avena fatua (AVEFA) [11]) [%] | pest or weed control at 1000 g/ha [12] [%]
1 | Cc1ccc(-c2cc(C)c(C3=C(O)CC(CC4CCOCC4)CC3=O)c(C)c2)cc1 (stereo not drawn) [Compound A-36] | 0 | 50 | 100 | 100 | 70 | 70 | 0 | 0 | 100 | 90 | 40 | 60
2 | CCc1cc(-c2ccc(Cl)cc2)cc(CC)c1C1=C(O)CC(CC2CCOCC2)CC1=O (stereo not drawn) [Compound A-34] | 20 | 0 | 90 | 100 | 100 | 50 | 0 | 0 | 90 | 100 | 60 | 50
3 | Cc1ccc(-c2ccc3c(c2)OCO3)cc1C1=C(O)CC(CC2CCOCC2)CC1=O (stereo not drawn) [Compound A-53] | 0 | 0 | 60 | 70 | 50 | 50 | 0 | 0 | 0 | 0 | 0 | 0
4 | CCC1(CC)COC(CC2CC(=O)C(c3cc(-c4ccc(Cl)cc4)ccc3C)=C(O)C2)OC1 (stereo not drawn) [Compound A-57] | 0 | 0 | 90 | 90 | 20 | 70 | 0 | 0 | 90 | 0 | 0 | 40
5 | Cc1ccc(-c2ccc(Cl)cc2)cc1C1=C(O)CC(CC2OCCO2)CC1=O (stereo not drawn) [Compound A-46, 2-(4′-Chloro-4-methylbiphenyl-3-yl)-5-[1,3]dioxolan-2-ylmethylcyclohexane-1,3-dione] | 20 | 20 | 90 | 100 | 80 | 90 | 0 | 0 | 90 | 40 | 40 | 20
6 | Cc1ccc(-c2ccc3c(c2)OCCO3)cc1C1=C(O)CC(CC2CCOCC2)CC1=O (stereo not drawn) [Compound A-54] | 0 | 0 | 0 | 70 | 0 | 0 | 0 | 0 | 0 | 0 | 10 | 60
7 | Cc1ccc(-c2ccc(Cl)cc2)cc1C1=C(O)CC(CC2OCC(C3CCOCC3)O2)CC1=O (stereo not drawn) [Compound A-59] | 0 | 0 | 90 | 90 | 20 | 70 | 0 | 0 | 60 | 0 | 0 | 20
8 | CCc1cc(-c2ccc(C)cc2)cc(CC)c1C1=C(O)CC(CC2CCOCC2)CC1=O (stereo not drawn) [Compound A-33] | 60 | 70 | 80 | 100 | 70 | 30 | 0 | 0 | 100 | 90 | 60 | 50
9 | CCc1ccc(-c2ccc(Cl)cc2)cc1C1=C(O)CC(CC2OCCO2)CC1=O (stereo not drawn) [Compound A-45] | 0 | 10 | 100 | 100 | 100 | 100 | 0 | 100 | 90 | 100 | 70 | 60
10 | Cc1ccc(-c2ccc(Cl)cc2)cc1C1=C(O)CC(CC2OCC(C)CO2)CC1=O (stereo not drawn) [Compound A-64] | 0 | 0 | 100 | 100 | 80 | 80 | 0 | 0 | 50 | 50 | 0 | 0
11 | Cc1ccc(-c2cccnc2OCC2CC2)cc1C1=C(O)CC(CC2CCOCC2)CC1=O (stereo not drawn) [Compound A-27] | 0 | 0 | 60 | 30 | 0 | 10 | 0 | 0 | 0 | 0 | 0 | 0
12 | Cc1ccc(-c2ccc(Cl)cc2)cc1C1=C(O)CC(CC2OCC3(CCOCC3)O2)CC1=O (stereo not drawn) [Compound A-58] | 0 | 0 | 90 | 90 | 40 | 60 | 0 | 0 | 30 | 60 | 0 | 20
13 | Cc1cc(-c2ccccc2)cc(C)c1C1=C(O)CC(CC2CCOCC2)CC1=O (stereo not drawn) [Compound A-41] | 40 | 40 | 100 | 100 | 70 | 90 | 0 | 0 | 100 | 100 | 80 | 90
